Assay results as given in patent US20020111274A1, “1-alkyl-3-[1-(substituted phenyl) benzotriazol-6-yl] uracils” (BASF Aktiengesellschaft, priority 2000, published 2002).

Key:
Parameters in all cases: scale not given here
Conditions in all cases: postemergence spray, rated about two-three weeks after treatment
[1] = system: ABUTH Velvetleaf; experiment: Postemergence herbicidal evaluation, ABUTH; assay type: in vivo, Abutilon theophrasti, Medic.
Protocol: (§1) In this evaluation, seedling plants are grown in jiffy flats for about two weeks. The test compounds are dispersed in 80/20 acetone/water mixtures containing 1.0% SUN-IT® II, a methylated seed oil, in sufficient quantities to provide the equivalent of about 0.006 kg to 0.400 kg per hectare of active compound when applied to the plants through a spray nozzle operating at 40 psi for a predetermined time. After spraying, the plants are placed on greenhouse benches and are cared for in accordance with conventional greenhouse procedures. Approximately two - three weeks after treatment, the seedling plants are examined and rated according to the rating system set forth below. Where more than one test is involved for a given compound, the data are averaged.

[2] = system: AMBEL Ragweed, Common; experiment: Postemergence herbicidal evaluation, AMBEL; assay type: in vivo, Ambrosia artemisifolia, L.
Protocol: as §1

[3] = system: CASOB Sicklepod; experiment: Postemergence herbicidal evaluation, CASOB; assay type: in vivo, Cassia obtusifolia, L.
Protocol: as §1

[4] = system: CHEAL Lambsquarters, Common; experiment: Postemergence herbicidal evaluation, CHEAL; assay type: in vivo, Chenopodium album, L.
Protocol: as §1

[5] = system: ECHOG Barnyardgrass; experiment: Postemergence herbicidal evaluation, ECHOG; assay type: in vivo, Echinochloa crus-galli, (L.) Beau
Protocol: as §1

[6] = system: GALAP Galium; experiment: Postemergence herbicidal evaluation, GALAP; assay type: in vivo, Galium aparine
Protocol: as §1

[7] = system: IPOHE Morningglory, Ivyleaf; experiment: Postemergence herbicidal evaluation, IPOHE; assay type: in vivo, Ipomoea hederacea, (L.) Jacq.
Protocol: as §1

[8] = system: SETVI Foxtail, Green; experiment: Postemergence herbicidal evaluation, SETVI; assay type: in vivo, Setaria viridis, (L.) Beau
Protocol: as §1

[9] = system: GLXMAW Soybean, Williams; experiment: Postemergence herbicidal evaluation, GLXMAW; assay type: in vivo, Glycine max, (L.) Merr. cv Williams
Protocol: as §1

[10] = system: TRZAWR Wheat, Winter, cv Riband; experiment: Postemergence herbicidal evaluation, TRZAWR; assay type: in vivo, Triticum aestivum
Protocol: as §1

[11] = system: ORYSAT Rice, Tebonnet; experiment: Postemergence herbicidal evaluation, ORYSAT; assay type: in vivo, Oryza sativa, (L.)
Protocol: as §1

[12] = system: ZEAMX Corn, Field; experiment: Postemergence herbicidal evaluation, ZEAMX; assay type: in vivo, Zea mays, L. (Sammel-Bezeichnung)
Protocol: as §1

Cc1ccccc1-n1nnc2cc(F)c(-n3c(=O)cc(C(F)(F)F)n(C)c3=O)cc21 [Example 20]
2.5: Postemergence herbicidal rating TRZAWR ([10]; 0.062 kg/ha)
3.0: Postemergence herbicidal rating AMBEL ([2]; 0.062 kg/ha) | Postemergence herbicidal rating CHEAL ([4]; 0.032 kg/ha) | Postemergence herbicidal rating GLXMAW ([9]; 0.008 kg/ha) | Postemergence herbicidal rating ZEAMX ([12]; 0.008 kg/ha)
0.5: Postemergence herbicidal rating ORYSAT ([11]; 0.016 kg/ha) | Postemergence herbicidal rating ORYSAT ([11]; 0.032 kg/ha)
4.0: Postemergence herbicidal rating IPOHE ([7]; 0.016 kg/ha) | Postemergence herbicidal rating IPOHE ([7]; 0.032 kg/ha)
9.0: Postemergence herbicidal rating ABUTH ([1]; 0.008 kg/ha) | Postemergence herbicidal rating ABUTH ([1]; 0.016 kg/ha) | Postemergence herbicidal rating ABUTH ([1]; 0.032 kg/ha) | Postemergence herbicidal rating ABUTH ([1]; 0.062 kg/ha) | Postemergence herbicidal rating GALAP ([6]; 0.062 kg/ha) | Postemergence herbicidal rating IPOHE ([7]; 0.062 kg/ha)
1.0: Postemergence herbicidal rating AMBEL ([2]; 0.016 kg/ha) | Postemergence herbicidal rating AMBEL ([2]; 0.032 kg/ha) | Postemergence herbicidal rating CASOB ([3]; 0.062 kg/ha) | Postemergence herbicidal rating IPOHE ([7]; 0.008 kg/ha) | Postemergence herbicidal rating ORYSAT ([11]; 0.062 kg/ha)
5.0: Postemergence herbicidal rating CHEAL ([4]; 0.062 kg/ha) | Postemergence herbicidal rating ZEAMX ([12]; 0.062 kg/ha)
1.5: Postemergence herbicidal rating TRZAWR ([10]; 0.008 kg/ha) | Postemergence herbicidal rating TRZAWR ([10]; 0.016 kg/ha) | Postemergence herbicidal rating TRZAWR ([10]; 0.032 kg/ha)
2.0: Postemergence herbicidal rating GALAP ([6]; 0.032 kg/ha)
3.5: Postemergence herbicidal rating ZEAMX ([12]; 0.016 kg/ha) | Postemergence herbicidal rating ZEAMX ([12]; 0.032 kg/ha)
0.0: Postemergence herbicidal rating AMBEL ([2]; 0.008 kg/ha) | Postemergence herbicidal rating CASOB ([3]; 0.008 kg/ha) | Postemergence herbicidal rating CASOB ([3]; 0.016 kg/ha) | Postemergence herbicidal rating CASOB ([3]; 0.032 kg/ha) | Postemergence herbicidal rating CHEAL ([4]; 0.008 kg/ha) | Postemergence herbicidal rating CHEAL ([4]; 0.016 kg/ha) | Postemergence herbicidal rating ECHCG ([5]; 0.008 kg/ha) | Postemergence herbicidal rating ECHCG ([5]; 0.016 kg/ha) | Postemergence herbicidal rating ECHCG ([5]; 0.032 kg/ha) | Postemergence herbicidal rating ECHCG ([5]; 0.062 kg/ha) | Postemergence herbicidal rating GALAP ([6]; 0.008 kg/ha) | Postemergence herbicidal rating GALAP ([6]; 0.016 kg/ha) | Postemergence herbicidal rating SETVI ([8]; 0.008 kg/ha) | Postemergence herbicidal rating SETVI ([8]; 0.016 kg/ha) | Postemergence herbicidal rating SETVI ([8]; 0.032 kg/ha) | Postemergence herbicidal rating SETVI ([8]; 0.062 kg/ha) | Postemergence herbicidal rating ORYSAT ([11]; 0.008 kg/ha)
5.5: Postemergence herbicidal rating GLXMAW ([9]; 0.016 kg/ha) | Postemergence herbicidal rating GLXMAW ([9]; 0.032 kg/ha) | Postemergence herbicidal rating GLXMAW ([9]; 0.062 kg/ha)
